{"source": "patent US11525018B2", "about": "“Methods of preparing compositions for containers and other articles and methods of using same” (SWIMC LLC, priority 2014, dated 2022)"}
{"tested_on": "MCF-7, clone WS8, cells", "assay": "MCF-7 cell proliferation assay of estrogenic activity", "assay_type": "cell-based, human", "settings": "logarithmic (base 10) Relative Proliferative Effect vs 17-beta estradiol (EC50 ratio times 100), cell proliferation as total DNA; values 'expected or measured'", "text": "The MCF-7 assay is a useful test for assessing whether a polyhydric phenol compound is appreciably non-estrogenic. The MCF-7 assay uses MCF-7, clone WS8, cells to measure whether and to what extent a substance induces cell proliferation via estrogen receptor (ER)-mediated pathways. The method is described in “Test Method Nomination: MCF-7 Cell Proliferation Assay of Estrogenic Activity” submitted for validation by CertiChem, Inc. to the National Toxicology Program Interagency Center for the Evaluation of Alternative Toxicological Methods (NICEATM) on Jan. 19, 2006 (available online at http://iccvam.niehs.nih.gov/methods/endocrine/endodocs/SubmDoc.pdf).\nA brief summary of the method of the aforementioned MCF-7 assay is provided below. MCF-7, clone WS8, cells are maintained at 37° C. in RMPI (or Roswell Park Memorial Institute medium) containing Phenol Red (e.g., GIBCO Catalog Number 11875119) and supplemented with the indicated additives for routine culture. An aliquot of cells maintained at 37° C. are grown for 2 days in phenol-free media containing 5% charcoal stripped fetal bovine serum in a 25 cm^2 tissue culture flask. Using a robotic dispenser such as an epMotion 5070 unit, MCF-7 cells are then seeded at 400 cells per well in 0.2 ml of hormone-free culture medium in Corning 96-well plates. The cells are adapted for 3 days in the hormone-free culture medium prior to adding the chemical to be assayed for estrogenic activity. The media containing the test chemical is replaced daily for 6 days. At the end of the 7-day exposure to the test chemical, the media is removed, the wells are washed once with 0.2 ml of HBSS (Hanks' Balanced Salt Solution), and then assayed to quantify amounts of DNA per well using a micro-plate modification of the Burton diphenylamine (DPA) assay, which is used to calculate the level of cell proliferation.\nRPE is the ratio between the EC50 of the test chemical and the EC50 of the control substance 17-beta estradiol times 100, where EC50 is “effective concentration 50%” or half-maximum stimulation concentration for cell proliferation measured as total DNA in the MCF-7 assay."}
{"smiles": "C[C@]12CC[C@@H]3c4ccc(O)cc4CC[C@H]3[C@@H]1CC[C@@H]2O", "note": "[17β-estradiol, reference compound]", "Log RPE": 2.00}
{"smiles": "Oc1ccc(Cc2ccc(O)cc2)cc1", "note": "[Bisphenol F, reference compound]", "Log RPE": "−2"}
{"smiles": "O=S(=O)(c1ccc(O)cc1)c1ccc(O)cc1", "note": "[Bisphenol S, reference compound]", "Log RPE": "−2"}
{"smiles": "O=C(OCC1CCC(COC(=O)c2cccc(O)c2)CC1)c1cccc(O)c1", "note": "(stereo not shown) [Example 2, Run III, bis(3-hydroxybenzoate) of Cyclohexanedimethanol]", "Log RPE": "less than −4"}
{"smiles": "O=c1c(-c2ccc(O)cc2)coc2cc(O)cc(O)c12", "note": "[Genistein, reference compound]", "Log RPE": "−2"}
{"smiles": "Cc1cc(C(C)(C)c2cc(C)c(O)c(C)c2)cc(C)c1O", "note": "[Structure 1]", "Log RPE": "−2"}
{"smiles": "Cc1cc(CCc2cc(C)c(O)c(C)c2)cc(C)c1O", "note": "[Structure 2]", "Log RPE": "−3"}
{"smiles": "CC(c1ccc(O)cc1)(c1ccc(O)cc1)c1ccc(O)cc1", "note": "[Structure 3]", "Log RPE": "−3"}
{"smiles": "CC(c1ccccc1)(c1ccc(O)cc1)c1ccc(O)cc1", "note": "[Structure 4]", "Log RPE": "−3"}
{"smiles": "CC(C(=O)O)(c1ccc(O)cc1)c1ccc(O)cc1", "note": "[Structure 5]", "Log RPE": "less than −4"}
{"smiles": "Cc1cc(Cc2cc(C)c(O)c(C)c2)cc(C)c1O", "note": "[Structure 6]", "Log RPE": "less than −4"}
{"smiles": "CCCC(c1cc(C(C)(C)C)c(O)cc1C)c1cc(C(C)(C)C)c(O)cc1C", "note": "[Structure 7]", "Log RPE": "less than −4"}
{"smiles": "Cc1cc(Cc2cc(C)cc(C(C)(C)C)c2O)c(O)c(C(C)(C)C)c1", "note": "[Structure 9]", "Log RPE": "less than −4"}
{"smiles": "CC(C)(c1ccc(O)cc1)c1ccc(C(C)(C)c2ccc(O)cc2)cc1", "note": "[Structure 10]", "Log RPE": "less than −4"}
{"smiles": "Oc1ccccc1Cc1ccccc1O", "note": "[Structure 11]", "Log RPE": "less than −4"}
{"smiles": "CC(C)(C)c1cc(O)c(C(C)(C)C)cc1O", "note": "[Structure 12]", "Log RPE": "less than −4"}
{"smiles": "Cc1cc(Cc2cc(C)cc(C3(C)CCCCC3)c2O)c(O)c(C2(C)CCCCC2)c1", "note": "[Structure 13]", "Log RPE": "less than −4"}
{"smiles": "CCc1cc(Cc2cc(CC)cc(C(C)(C)C)c2O)c(O)c(C(C)(C)C)c1", "note": "[Structure 15]", "Log RPE": "less than −4"}
{"smiles": "CC(C)(c1cc(Br)c(O)c(Br)c1)c1cc(Br)c(O)c(Br)c1", "note": "[Structure 16]", "Log RPE": "−3"}
{"smiles": "C/C=C(/C(=C/C)c1ccc(O)cc1)c1ccc(O)cc1", "note": "[dienestrol, reference compound]", "Log RPE": "about 2"}
{"smiles": "CC/C(=C(/CC)c1ccc(O)cc1)c1ccc(O)cc1", "note": "[diethylstilbestrol, reference compound]", "Log RPE": "about 2"}
{"target": "T1, human estrogen receptor (Homo sapiens, UniProt P03372)", "T1 sequence (P03372 1-595)": "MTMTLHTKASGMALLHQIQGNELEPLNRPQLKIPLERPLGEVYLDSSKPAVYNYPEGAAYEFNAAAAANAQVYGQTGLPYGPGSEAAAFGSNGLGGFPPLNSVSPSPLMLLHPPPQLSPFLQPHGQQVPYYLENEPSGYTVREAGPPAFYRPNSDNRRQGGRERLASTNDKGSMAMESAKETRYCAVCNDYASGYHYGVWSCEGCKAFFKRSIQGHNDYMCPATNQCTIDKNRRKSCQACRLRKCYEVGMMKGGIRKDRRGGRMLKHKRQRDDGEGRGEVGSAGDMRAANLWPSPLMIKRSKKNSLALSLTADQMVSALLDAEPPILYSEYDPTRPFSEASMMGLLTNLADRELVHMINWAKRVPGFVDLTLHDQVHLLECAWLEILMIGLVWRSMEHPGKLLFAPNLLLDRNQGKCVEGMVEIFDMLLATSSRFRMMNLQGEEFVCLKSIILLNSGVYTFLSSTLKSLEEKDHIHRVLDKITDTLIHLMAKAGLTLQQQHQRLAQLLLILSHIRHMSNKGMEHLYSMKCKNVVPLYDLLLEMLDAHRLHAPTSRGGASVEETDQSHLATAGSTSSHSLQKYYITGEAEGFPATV", "assay": "suitable in vitro assay correlated to the MCF-7 assay (estrogenic activity)", "assay_type": "cell-based", "settings": "in vitro assay whose results are directly correlated to the MCF-7 assay through common reference compounds"}
{"smiles": "Cc1cc(Cc2cc(C)c(O)c(C)c2)cc(C)c1O", "note": "[Structure 6, 4,4′-methylenebis(2,6-dimethylphenol)]", "estrogenic activity": "do not exhibit appreciable estrogenic activity"}
{"smiles": "CCCC(c1cc(C(C)(C)C)c(O)cc1C)c1cc(C(C)(C)C)c(O)cc1C", "note": "[Structure 7, 4,4′-butylidenebis(2-t-butyl-5-methylphenol)]", "estrogenic activity": "do not exhibit appreciable estrogenic activity"}
{"smiles": "CC(C)(C)c1cc(Cc2cc(C(C)(C)C)c(O)c(C(C)(C)C)c2)cc(C(C)(C)C)c1O", "note": "[Structure 8, 4,4′-methylenebis(2,6-di-t-butylphenol)]", "estrogenic activity": "do not exhibit appreciable estrogenic activity"}
{"smiles": "Cc1cc(Cc2cc(C)cc(C(C)(C)C)c2O)c(O)c(C(C)(C)C)c1", "note": "[Structure 9]", "estrogenic activity": "do not exhibit appreciable estrogenic activity"}
{"smiles": "CC(C)(C)c1cc(O)c(C(C)(C)C)cc1O", "note": "[Structure 12, 2,5-di-t-butylhydroquinone]", "estrogenic activity": "do not exhibit appreciable estrogenic activity"}
{"tested_on": "not listed separately", "assay": "suitable genotoxicity assays (e.g., Ames II assay)", "settings": "not given", "method": "A solution of 4,4′-methylenebis(2,6-di-t-butylphenol) (500 grams, 1.076 moles obtained from Albemarle Corporation) in anhydrous dimethylformamide (1.5 liters) was cooled to −10° C. and a solution of sodium tert-pentoxide (374 grams, 3.23 moles) in anhydrous dimethylformamide (1.5 liters) was added drop wise at −10 to −5° C. The mixture was stirred for 30 minutes at −10° C. Epichlorohydrin (1.9 liters, 24.2 moles) was added via dropping funnel at −10 to −5° C. The solution was allowed to warm up to room temperature and then was heated for 16 hours at a temperature of from 75 to 82° C. After cooling down to ambient temperature, the mixture was added to cold tap water (12 liters). Ethyl acetate (5 liters) was added to the mixture, which was stirred for 10 minutes and separated. The aqueous layer was extracted again with additional ethyl acetate (3 liters). The combined ethyl acetate extracts were washed twice with brine (2×6 liters), dried over anhydrous sodium sulfate (600 grams), and filtered. The solvent was removed under reduced pressure to give 887 grams of crude product as a purple oil. The crude product was dissolved in toluene (600 milliliters) and passed over a silica gel pad (1.4 kilograms), and eluted with a mixture of toluene and heptane (8 parts toluene to 2 parts heptane). The fractions containing product were combined and evaporated under reduced pressure. […]"}
{"smiles": "CC(C)(C)c1cc(Cc2cc(C(C)(C)C)c(OCC3CO3)c(C(C)(C)C)c2)cc(C(C)(C)C)c1OCC1CO1", "note": "(stereo not shown) [Diglycidyl ether of 4,4′-methylenebis(2,6-di-tert-butylphenol)]", "genotoxicity": "non-genotoxic"}
{"smiles": "CCCC(c1cc(C(C)(C)C)c(OCC2CO2)cc1C)c1cc(C(C)(C)C)c(OCC2CO2)cc1C", "note": "(stereo not shown) [Diglycidyl ether of 4,4′Butylidenebis(2-t-butyl-5-methylphenol))]", "genotoxicity": "non-genotoxic"}
